Measurements taken from patent publication US12186303B2, “Feed additive for cattle comprising n-acetyl-l-tryptophan as active ingredient” (CJ CHEILJEDANG CORPORATION, priority 2018, dated 2025).

How the values were obtained:
Korean native steers [1] = assay: Complete blood cell count (CBC) under heat stress conditions; type: in vivo, Korean native cattle; settings: for GRA (0-2.4) / HCT (23-33) / HGB (8.0-15.0) / LYM (2.5-7.5) / MCH (14-18) / MCHC (30-36) / MCV (40-60) / MON (0-0.84) / MPV (4.5-7.6) / PCT (0.15-0.40) / PDW (56-80) / PLT (100-800) / RBC (5.0-10.0) / RDW (16-20) / WBC (4.0-12.0): 0.1% NALT
Text: After grouping the animals by statistical analysis of initial body weights, the animals were bred in 1.0×1.5 m^2 individual pens during the experiment period. The feed was offered based on an amount of dry matter of daily total mixed ration (TMR) per head. After 7 days of an adaptation period for N-acetyl-L-tryptophan (NALT), a mixture of 0.1% N-acetyl-L-tryptophan (NALT) and the total mixed ration was fed to individual animals every morning at 8 a.m. for 6 weeks, and water was available ad libitum. Total amounts of L-tryptophan ingested by the control and the experimental group (NALT-treated group) by feeding NALT were 6.0 g/day/head and 18.2 g/day/head, respectively. The experiment was performed such that the NALT-treated group ingested 12.2 g/day/head more L-tryptophan than the control.
Meanwhile, results of growth performance analysis (body weight and average feed intake) and genetic analysis of loin tissue were obtained by statistically comparing and analyzing significant differences between the control and the NALT-treated group, and results of hematological analysis were obtained via statistical comparison and analysis depending on NALT treatment, experiment period (days), and interaction (treatment×days). These numerical values were expressed as average values, and a significance test was performed at the 5% level using Student's t-test by using a JMP 5.0 software package (SAS Institute Inc., Cary, NC, USA).
Blood samples were collected from a jugular vein of each sentinel animal before offering the feed at the starting day of the experiment (week 0), the mid-point of the experiment (week 5), and the final day of the experiment (week 10) and stored in a vacutainer (Becton Dickinson, Franklin Lakes, NJ, USA). Complete blood cell count (CBC) was performed using whole blood using a VetScan HM2 (Abaxis, Union City, CA, USA), and hematological properties were identified using serum with a biochemical autoanalyzer (FUJI DRI-CHEM 7000, Fujifilm, Tokyo, Japan). In addition, total protein (TP), albumin (ALB), creatinine phosphokinase (CPK), and blood urea nitrogen (BUN), which are related to blood protein metabolism, were analyzed; triglycerides (TG) and non-esterified fatty acid (NEFA), which are related to energy metabolism, were analyzed; and sodium (Na), chlorine (CI), and potassium (K), which are blood electrolytes, were analyzed.

Korean native steers [2] = assay: Feed intake according to NALT feeding under cold stress conditions; type: in vivo, Korean native cattle; settings: for Feed intake: 0.1% NALT
Text: After grouping the animals by statistical analysis of initial body weights, the animals were bred in 1.0×1.5 m^2 individual pens during the experiment period. The feed was offered based on an amount of dry matter of daily total mixed ration (TMR) per head. After 7 days of an adaptation period for N-acetyl-L-tryptophan (NALT), a mixture of 0.1% N-acetyl-L-tryptophan (NALT) and the total mixed ration was fed to individual animals every morning at 8 a.m. for 6 weeks, and water was available ad libitum. Total amounts of L-tryptophan ingested by the control and NALT-treated group by feeding NALT were 7.37 g/day/head and 16.26 g/day/head, respectively. The experiment was performed such that the NALT-treated group ingested 8.89 g/day/head more L-tryptophan than that of the control. Meanwhile, results of growth performance analysis (body weight and average feed intake) and genetic analysis of loin tissue were obtained by statistically comparing and analyzing significant differences between the control and the NALT-treated group, and results of hematological analysis were obtained via statistical comparison and analysis depending on NALT treatment, experiment period (days), and interaction (treatment×days). These numerical values were expressed as average values, and a significance test was performed at the 5% level using Student's t-test by using the JMP 5.0 software package (SAS Institute Inc., Cary, NC, USA). Feed intake of each sentinel animal was calculated by measuring a total amount of feed offered and an amount left over every day.

All CBC test indicators, effect of treatment with 0.1% NALT (Korean native steers [1]): No statistically significant difference | Values of hematological indicators (CBC) relative to normal ranges (Korean native steers [1]): within normal ranges | GRA (0-2.4) (Korean native steers [1]; Day 0): 3.16 10^3/μL | HCT (23-33) (Korean native steers [1]; Day 0): 6.95% | HGB (8.0-15.0) (Korean native steers [1]; Day 0): 13.4 g/dL | LYM (2.5-7.5) (Korean native steers [1]; Day 0): 6.08 10^3/μL | MCH (14-18) (Korean native steers [1]; Day 0): 14.8 pg | MCHC (30-36) (Korean native steers [1]; Day 0): 38.3 g/dL | MCV (40-60) (Korean native steers [1]; Day 0): 38.8 fL | MON (0-0.84) (Korean native steers [1]; Day 0): 0.22 10^3/μL | MPV (4.5-7.6) (Korean native steers [1]; Day 0): 6.95 fL | PCT (0.15-0.40) (Korean native steers [1]; Day 0): 0.24% | PDW (56-80) (Korean native steers [1]; Day 0): 34.1% | PLT (100-800) (Korean native steers [1]; Day 0): 332 10^3/μL | RBC (5.0-10.0) (Korean native steers [1]; Day 0): 9.13 10^6/μL | RDW (16-20) (Korean native steers [1]; Day 0): 23.6% | WBC (4.0-12.0) (Korean native steers [1]; Day 0): 9.60 10^3/μL | GRA (0-2.4) (Korean native steers [1]; Day 35): 3.61 10^3/μL | HCT (23-33) (Korean native steers [1]; Day 35): 6.58% | HGB (8.0-15.0) (Korean native steers [1]; Day 35): 11.7 g/dL | LYM (2.5-7.5) (Korean native steers [1]; Day 35): 5.67 10^3/μL | MCH (14-18) (Korean native steers [1]; Day 35): 14.7 pg | MCHC (30-36) (Korean native steers [1]; Day 35): 37.1 g/dL | MCV (40-60) (Korean native steers [1]; Day 35): 40.0 fL | MON (0-0.84) (Korean native steers [1]; Day 35): 0.46 10^3/μL | MPV (4.5-7.6) (Korean native steers [1]; Day 35): 6.58 fL | PCT (0.15-0.40) (Korean native steers [1]; Day 35): 0.24% | PDW (56-80) (Korean native steers [1]; Day 35): 31.5% | PLT (100-800) (Korean native steers [1]; Day 35): 371 10^3/μL | RBC (5.0-10.0) (Korean native steers [1]; Day 35): 8.04 10^6/μL | RDW (16-20) (Korean native steers [1]; Day 35): 22.7% | WBC (4.0-12.0) (Korean native steers [1]; Day 35): 9.74 10^3/μL | GRA (0-2.4) (Korean native steers [1]; Day 70): 3.66 10^3/μL | HCT (23-33) (Korean native steers [1]; Day 70): 9.80% | HGB (8.0-15.0) (Korean native steers [1]; Day 70): 13.8 g/dL | LYM (2.5-7.5) (Korean native steers [1]; Day 70): 4.91 10^3/μL | MCH (14-18) (Korean native steers [1]; Day 70): 15.7 pg | MCHC (30-36) (Korean native steers [1]; Day 70): 37.1 g/dL | MCV (40-60) (Korean native steers [1]; Day 70): 42.5 fL | MON (0-0.84) (Korean native steers [1]; Day 70): 0.81 10^3/μL | MPV (4.5-7.6) (Korean native steers [1]; Day 70): 9.80 fL | PCT (0.15-0.40) (Korean native steers [1]; Day 70): 0.24% | PDW (56-80) (Korean native steers [1]; Day 70): 29.5% | PLT (100-800) (Korean native steers [1]; Day 70): 196 10^3/μL | RBC (5.0-10.0) (Korean native steers [1]; Day 70): 8.83 10^6/μL | RDW (16-20) (Korean native steers [1]; Day 70): 23.6% | WBC (4.0-12.0) (Korean native steers [1]; Day 70): 9.38 10^3/μL
SMILES: CC(=O)N[C@@H](Cc1c[nH]c2ccccc12)C(=O)O [NALT, N-acetyl-L-tryptophan]
Feed intake (Korean native steers [2]; Days 0-6 (adaptation period)): 8.56 kg | Feed intake (Korean native steers [2]; Days 7-13): 9.21 kg | Feed intake (Korean native steers [2]; Days 7-48 (entire experiment period)): 9.86 kg | Feed intake (Korean native steers [2]; Days 14-20): 9.56 kg | Feed intake (Korean native steers [2]; Days 21-27): 9.68 kg | Feed intake (Korean native steers [2]; Days 28-34): 10.22 kg | Feed intake (Korean native steers [2]; Days 35-41): 10.02 kg | Feed intake (Korean native steers [2]; Days 42-48): 10.56 kg | Feed intake compared with the control (Korean native steers [2]; adaptation period (days 0-6)): No statistically significant difference | Feed intake compared with the control (Korean native steers [2]; days 7-41): no statistically significant difference | Increase in average feed intake per head compared to the control (Korean native steers [2]; days 7-48): about 4.6% | Increase in feed intake compared to the control (Korean native steers [2]; days 42-48): about 1.02 kg | Average feed intake per head (Korean native steers [2]; entire experiment period (days 7-48)): 9.86 kg/day/head
